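Here, GI50 denotes the concentration required for 50% inhibition of growth. At the TGI there is no net growth.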
How the values were obtained:
Test in all cases: NCI tumour cell line growth inhibition, 384-well format
[1] = tested on: RPMI-8226 leukemia
[2] = tested on: DU-145 prostate
[3] = tested on: BT-549 breast
[4] = tested on: HOP-62 NSCLC
[5] = tested on: HS 578T breast
[6] = tested on: RXF 393 renal
[7] = tested on: NCI-H460 NSCLC
[8] = tested on: NCI-H322M lung
[9] = tested on: HCT-116 colon
[10] = tested on: LOX IMVI melanoma
[11] = tested on: MCF7 breast
[12] = tested on: SN12C renal
[13] = tested on: 786-0 renal
[14] = tested on: UACC-257 melanoma
[15] = tested on: OVCAR-4 ovarian
[16] = tested on: NCI-H226 lung
[17] = tested on: SNB-19 CNS
[18] = tested on: MDA-MB-231 breast
[19] = tested on: TK-10 renal
[20] = tested on: SK-MEL-28 melanoma
[21] = tested on: HOP-92 NSCLC
[22] = tested on: OVCAR-5 ovarian
[23] = tested on: IGROV1 ovarian
[24] = tested on: MDA-MB-435 melanoma
[25] = tested on: SF-268 CNS
[26] = tested on: HCT-15 colon
[27] = tested on: A549 NSCLC
[28] = tested on: CAKI-1 renal
[29] = tested on: UO-31 renal
[30] = tested on: KM12 colon
[31] = tested on: COLO 205 colon
[32] = tested on: CCRF-CEM leukemia
[33] = tested on: HCC-2998 colon
[34] = tested on: MALME-3M melanoma
[35] = tested on: SK-MEL-2 melanoma
[36] = tested on: NCI-H23 lung
[37] = tested on: UACC-62 melanoma
[38] = tested on: SK-OV-3 ovarian
[39] = tested on: SF-295 CNS
[40] = tested on: MDA-MB-468 breast
[41] = tested on: ACHN renal
[42] = tested on: EKVX NSCLC
[43] = tested on: SK-MEL-5 melanoma
[44] = tested on: NCI-H522 lung
[45] = tested on: K-562 leukemia
[46] = tested on: PC-3 prostate
[47] = tested on: OVCAR-8 ovarian
[48] = tested on: SW-620 colon
[49] = tested on: MOLT-4 leukemia
[50] = tested on: NCI/ADR-RES ovarian
[51] = tested on: M14 melanoma
[52] = tested on: HT29 colon
[53] = tested on: SNB-75 CNS
[54] = tested on: SF-539 CNS
[55] = tested on: T-47D breast
[56] = tested on: U251 glioblastoma
[57] = tested on: OVCAR-3 ovarian
[58] = tested on: HL-60(TB) leukemia
[59] = tested on: A498 renal

Cn1cc(-c2ccc(=O)n(Cc3cccc(-c4ncc(OCCN5CCOCC5)cn4)c3)n2)cn1
GI50 [1]: 24.9 µM
TGI [1]: > 100 µM
GI50 [2]: > 100 µM
TGI [2]: > 100 µM
GI50 [3]: 33.8 µM
TGI [3]: > 100 µM
GI50 [4]: 23.7 µM
TGI [4]: 98.6 µM
GI50 [5]: 97.8 µM
TGI [5]: > 100 µM
GI50 [6]: 56.6 µM
TGI [6]: > 100 µM
GI50 [7]: 72 µM
TGI [7]: > 100 µM
GI50 [8]: > 100 µM
TGI [8]: > 100 µM
GI50 [9]: 75.5 µM
TGI [9]: > 100 µM
GI50 [10]: 37.6 µM
TGI [10]: > 100 µM
GI50 [11]: 48.6 µM
TGI [11]: > 100 µM
GI50 [12]: > 100 µM
TGI [12]: > 100 µM
GI50 [13]: > 100 µM
TGI [13]: > 100 µM
GI50 [14]: 55.5 µM
TGI [14]: > 100 µM
GI50 [15]: 78.3 µM
TGI [15]: > 100 µM
GI50 [16]: 28.9 µM
TGI [16]: > 100 µM
GI50 [17]: > 100 µM
TGI [17]: > 100 µM
GI50 [18]: > 100 µM
TGI [18]: > 100 µM
GI50 [19]: > 100 µM
TGI [19]: > 100 µM
GI50 [20]: > 100 µM
TGI [20]: > 100 µM
GI50 [21]: > 100 µM
TGI [21]: > 100 µM
GI50 [22]: > 100 µM
TGI [22]: > 100 µM
GI50 [23]: > 100 µM
TGI [23]: > 100 µM
GI50 [24]: > 100 µM
TGI [24]: > 100 µM
GI50 [25]: > 100 µM
TGI [25]: > 100 µM
GI50 [26]: > 100 µM
TGI [26]: > 100 µM
GI50 [27]: > 100 µM
TGI [27]: > 100 µM
GI50 [28]: 82.5 µM
TGI [28]: > 100 µM
GI50 [29]: > 100 µM
TGI [29]: > 100 µM
GI50 [30]: 66.1 µM
TGI [30]: > 100 µM
GI50 [31]: > 100 µM
TGI [31]: > 100 µM
GI50 [32]: 21.6 µM
TGI [32]: 57.4 µM
GI50 [33]: > 100 µM
TGI [33]: > 100 µM
GI50 [34]: > 100 µM
TGI [34]: > 100 µM
GI50 [35]: > 100 µM
TGI [35]: > 100 µM
GI50 [36]: 14.5 µM
TGI [36]: > 100 µM
GI50 [37]: > 100 µM
TGI [37]: > 100 µM
GI50 [38]: > 100 µM
TGI [38]: > 100 µM
GI50 [39]: 71.2 µM
TGI [39]: > 100 µM
GI50 [40]: 17.7 µM
TGI [40]: 54.6 µM
GI50 [41]: > 100 µM
TGI [41]: > 100 µM
GI50 [42]: 39.5 µM
TGI [42]: > 100 µM
GI50 [43]: 16.5 µM
TGI [43]: 36.8 µM
GI50 [44]: 62.6 µM
TGI [44]: > 100 µM
GI50 [45]: 35.1 µM
TGI [45]: > 100 µM
GI50 [46]: 67.8 µM
TGI [46]: > 100 µM
GI50 [47]: 61.8 µM
TGI [47]: > 100 µM
GI50 [48]: > 100 µM
TGI [48]: > 100 µM
GI50 [49]: 18.6 µM
TGI [49]: 37.1 µM
GI50 [50]: 32.9 µM
TGI [50]: > 100 µM
GI50 [51]: > 100 µM
TGI [51]: > 100 µM
GI50 [52]: > 100 µM
TGI [52]: > 100 µM
GI50 [53]: 98.9 µM
TGI [53]: > 100 µM
GI50 [54]: > 100 µM
TGI [54]: > 100 µM
GI50 [55]: 18.3 µM
TGI [55]: 72.2 µM
GI50 [56]: 64.2 µM
TGI [56]: > 100 µM
GI50 [57]: > 100 µM
TGI [57]: > 100 µM
GI50 [58]: 35.8 µM
TGI [58]: 94.6 µM
GI50 [59]: > 100 µM
TGI [59]: > 100 µM

From PubChem BioAssay (NCI)
